Key:
[1] = biological target: T1, human HIF-PHD2 (Homo sapiens, UniProt Q9GZT9); test: HIF-PHD inhibition assay (fluorescence polarization), human HIF-PHD2; type: biochemical; conditions: 2-oxoglutaric acid 3.33 μmol/L
T1 construct: purchased CrystalGenomics Ltd
Experimental: (§1) The activity of the test compound to inhibit human HIF-PHD2 and human HIF-PHD3 was determined.
(§2) The value of enzyme activity was calculated by subtracting the value of fluorescence polarization before addition of the enzyme from the value of fluorescence polarization after addition of enzyme (mP value).
(§3) FAM: 5′-fluoresceinamide ACA: aminocaproic acid

[2] = biological target: T2, human HIF-PHD3 (Homo sapiens, UniProt Q9H6Z9); test: HIF-PHD inhibition assay (fluorescence polarization), human HIF-PHD3; type: biochemical; conditions: 2-oxoglutaric acid 166 μmol/L
T2 construct: purchased CrystalGenomics Ltd
Experimental: as §1, §2, §3

T2 sequence (Q9H6Z9 whole entry): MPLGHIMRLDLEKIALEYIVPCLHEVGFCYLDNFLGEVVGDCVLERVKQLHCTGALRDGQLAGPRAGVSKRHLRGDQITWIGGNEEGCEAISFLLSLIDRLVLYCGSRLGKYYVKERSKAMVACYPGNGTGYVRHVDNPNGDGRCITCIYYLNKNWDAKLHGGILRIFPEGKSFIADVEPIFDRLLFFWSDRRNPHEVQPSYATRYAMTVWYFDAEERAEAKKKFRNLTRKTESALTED
T1 sequence (Q9GZT9 2-426 limits assumed): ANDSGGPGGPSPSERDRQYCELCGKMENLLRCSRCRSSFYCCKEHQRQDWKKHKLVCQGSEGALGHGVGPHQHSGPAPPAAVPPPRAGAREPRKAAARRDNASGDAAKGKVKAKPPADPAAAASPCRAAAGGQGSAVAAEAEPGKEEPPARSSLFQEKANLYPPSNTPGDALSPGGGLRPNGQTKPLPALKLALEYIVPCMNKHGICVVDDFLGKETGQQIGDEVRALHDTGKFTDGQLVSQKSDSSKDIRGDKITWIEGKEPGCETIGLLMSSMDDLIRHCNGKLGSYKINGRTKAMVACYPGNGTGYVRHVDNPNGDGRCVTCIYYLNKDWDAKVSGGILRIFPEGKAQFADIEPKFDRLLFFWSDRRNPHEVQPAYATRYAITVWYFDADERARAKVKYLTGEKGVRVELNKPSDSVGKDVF

Structure (SMILES)	IC50 [1] [nM]	IC50 [2] [nM]
O=C(O)c1cnn(-c2nc(O)c3c(n2)c(F)nn3C2CCCCCCC2)c1 [Example 482]	43	1300
CC(C)[C@@H]1CC[C@@H](C)[C@@H](n2ncc3nc(-n4cc(C(=O)O)cn4)nc(O)c32)C1 [Example 406]	170	680
O=C(O)c1cnn(-c2nc(O)c3c(cnn3C[C@@H]3CCN(c4ccc(C(F)(F)F)cc4)C3)n2)c1 [Example 426]	15	140
CC(C)[C@H]1CC[C@H](n2ncc3nc(-n4cc(C(=O)O)cn4)nc(O)c32)CC1 [Example 389]	76	790
CC(C)C(c1ccc(C(F)(F)F)cc1)n1ncc2nc(-n3cc(C(=O)O)cn3)nc(O)c21 (single isomer, unassigned) [Example 357]	77	390
Cc1nn([C@@H](C)c2cccc(F)c2)c2c(O)nc(-n3cc(C(=O)O)cn3)nc12 [Example 449]	> 300	1200
CC1(C)CCCC(n2ncc3nc(-n4cc(C(=O)O)cn4)nc(O)c32)C1 (single isomer, unassigned) [Example 412]	43	590
Cc1ccc(F)c(C(C)n2ncc3nc(-n4cc(C(=O)O)cn4)nc(O)c32)c1 (single isomer, unassigned) [Example 314]	61	800
CC1(C)CCCC1n1ncc2nc(-n3cc(C(=O)O)cn3)nc(O)c21 (centres unmarked) [Example 417]	70	1300
Cc1ccc(C(C)n2ncc3nc(-n4cc(C(=O)O)cn4)nc(O)c32)cc1F (single isomer, unassigned) [Example 296]	55	480
CC[C@H]1CC[C@H](n2ncc3nc(-n4cc(C(=O)O)cn4)nc(O)c32)CC1 [Example 388]	47	510
Cc1ccc(C(C)n2ncc3nc(-n4cc(C(=O)O)cn4)nc(O)c32)cc1 (centres unmarked) [Example 291]	72	730
CC(c1ccc(N2CCC(C(F)(F)F)CC2)cc1)n1ncc2nc(-n3cc(C(=O)O)cn3)nc(O)c21 (racemic) [Example 423]	31	740
CC1(C)CCC(n2ncc3nc(-n4cc(C(=O)O)cn4)nc(O)c32)CC1 [Example 386]	38	840
Cc1cc(C(C2CC2)n2ncc3nc(-n4cc(C(=O)O)cn4)nc(O)c32)ccc1F (single isomer, unassigned) [Example 377]	66	340
C[C@@H](c1ccc(OC(F)(F)F)c(F)c1)n1ncc2nc(-n3cc(C(=O)O)cn3)nc(O)c21 [Example 317]	19	520

Structure (SMILES)	IC50 [1] [nM]	IC50 [2] [nM]
C[C@@H](C1CCN(c2ccc(C(F)(F)F)cc2)CC1)n1ncc2nc(-n3cc(C(=O)O)cn3)nc(O)c21 [Example 431]	17	280
CC(C)[C@@H]1CC[C@@H](C)C[C@@H]1n1ncc2nc(-n3cc(C(=O)O)cn3)nc(O)c21 [Example 403]	140	940
CC(C)c1ccccc1-c1ccc(Cn2ncc3nc(-n4cc(C(=O)O)cn4)nc(O)c32)cc1 [Example 59]	29	95
C[C@@H](c1ccc(F)cc1F)n1ncc2nc(-n3cc(C(=O)O)cn3)nc(O)c21 [Example 255]	64	540
C[C@@H](c1ccc(F)c(Cl)c1)n1ncc2nc(-n3cc(C(=O)O)cn3)nc(O)c21 [Example 250]	49	180
CC(c1ccc(F)c(C(F)(F)F)c1)n1ncc2nc(-n3cc(C(=O)O)cn3)nc(O)c21 (single isomer, unassigned) [Example 304]	15	230
Cc1nn(CC(C)(C)C)c2c(O)nc(-n3cc(C(=O)O)cn3)nc12 [Example 500]	> 300	750
Cc1ccc(Cl)cc1C(C)n1ncc2nc(-n3cc(C(=O)O)cn3)nc(O)c21 (single isomer, unassigned) [Example 312]	110	510
O=C(O)c1cnn(-c2nc(O)c3c(cnn3Cc3ccc(-c4cccc(Cl)c4Cl)cc3)n2)c1 [Example 75]	20	120
C[C@@H](c1ccc2c(c1)CCC2)n1ncc2nc(-n3cc(C(=O)O)cn3)nc(O)c21 [Example 289]	30	210
Cc1ccc(F)c(C(C)n2ncc3nc(-n4cc(C(=O)O)cn4)nc(O)c32)c1 (centres unmarked) [Example 313]	40	900
CC[C@H]1CC[C@H](Cn2nc(F)c3nc(-n4cc(C(=O)O)cn4)nc(O)c32)CC1 [Example 219]	11	1400
Cn1ncc2nc(-n3cc(C(=O)O)cn3)nc(O)c21 [Example 485]	140	> 3000
Cc1nn([C@@H](C)c2ccc(F)c(F)c2)c2c(O)nc(-n3cc(C(=O)O)cn3)nc12 [Example 450]	64	580
Cc1nn([C@@H](C)c2ccc(F)cc2)c2c(O)nc(-n3cc(C(=O)O)cn3)nc12 [Example 448]	62	1900

Source: patent publication US20150239889A1, “PYRAZOLOPYRIMIDINE COMPOUND” (MITSUBISHI TANABE PHARMA CORPORATION, priority 2012, published 2015)
